Experimental data published in patent US6492381B1, “Tricyclic carbamate compounds useful for inhibition of G-protein function and for treatment of proliferative diseases” (Schering Corp., priority 1993, dated 2002).
Where two headings read alike, the source gives them in different places.

Tests used:
[1] = biological target: T1, farnesyl protein transferase (FPT) (Rattus norvegicus, UniProt Q02293+Q04631); assay: In vitro enzyme assay: inhibition of farnesyl protein transferase; type: biochemical
T1 construct: were partially purified from rat brain by ammonium sulfate fractionation followed by Q-Sepharose; from tissue; host or cells: rat brain
Procedure: (§1) 1. In vitro enzyme assays: Inhibition of farnesyl protein transferase and geranylgeranyl protein transferase.
Human farnesyl protein transferase was also expressed in E. coli, using cDNA clones encoding both the α and β subunits. […] Two forms of val^12-Ha-Ras protein were prepared as substrates for these enzymes, differing in their carboxy terminal sequence. One form terminated in cysteine-valine-leucine-serine (Ras-CVLS) the other in cystein-valine-leucine-leucine (Ras-CVLL). Ras-CVLS is a substrate for the farnesyl protein transferase while Ras-CVLL is a substrate for geranylgeranyl protein transferase I. The cDNAs encoding these proteins were constructed so that the proteins contain an amino-terminal extension of 6 histidine residues. Both proteins were expressed in Escherichia coli and purified using metal chelate affinity chromatography. The radiolabelled isoprenyl pyrophosphate substrates, [^3H]farnesyl pyrophosphate and [^3H]geranylgeranyl pyrophosphate, were purchased from DuPont/New England Nuclear.
The reaction was allowed to proceed for 30 minutes at room temperature and then stopped with 0.5 ml of 4% sodium dodecyl sulfate (SDS) followed by 0.5 ml of cold 30% trichloracetic acid (TCA). Samples were allowed to sit on ice for 45 minutes and precipitated Ras protein was then collected on GF/C filter paper mats using a Brandel cell harvester. […] Percent inhibition was calculated relative to the DMSO vehicle control.

[2] = system: Ras-CVLS processing in COS monkey kidney cells; assay: Cell-based assay: Ras-CVLS processing in transfected COS cells (immunoblot); settings: Primates; inhibition of Ras-CVLS processing in Ras-transfected COS cells
From the text: 2. Cell-Based Assay: Transient expression of val^12-Ha-Ras-CVLS and val^12-Ha-Ras-CVLL in COS monkey kidney cells: Effect of farnesyl protein transferase inhibitors on Ras processing and on disordered cell growth induced by transforming Ras.
COS monkey kidney cells were transfected by electroporation with the plasmid pSV-SPORT (Gibco/BRL) containing a cDNA insert encoding either Ras-CVLS or Ras-CVLL, leading to transient overexpression of a Ras substrate for either farnesyl protein transferase or geranylgeranyl protein transferase I, respectively (see above).
Following electroporation, cells were plated into 6-well tissue culture dishes containing 1.5 ml of Dulbecco's-modified Eagle's media (GIBCO, Inc.) supplemented with 10% fetal calf serum and the appropriate farnesyl protein transferase inhibitors. After 24 hours, media was removed and fresh media containing the appropriate drugs was re-added.
48 hours after electroporation cells were examined under the microscope to monitor disordered cell growth induced by transforming Ras. Cells expressing transforming Ras become more rounded and refractile and overgrow the monolayer, reminiscent of the transformed phenotype. Cells were then photographed, washed twice with 1 ml of cold phosphate-buffered saline (PBS) and removed from the dish by scraping with a rubber policeman into 1 ml of a buffer containing 25 mM Tris, pH 8.0; 1 mM ethylenediamine tetraacetic acid; 1 mM phenylmethylsulfonyl fluoride; 50 μM leupeptin; and 0.1 μM pepstatin. Cells were lysed by homogenization and cell debris was removed by centrifugation at 2000×g for 10 min.
Cellular protein was precipitated by addition of ice-cold trichloroacetic acid and redissolved in 100 μl of SDS-electrophoresis sample buffer. Samples (5-10 μl) were loaded onto 14% polyacrylamide minigels (Novex, Inc.) and electrophoresed until the tracking dye neared the bottom of the gel. Proteins resolved on the gels were electroblotted onto nitrocellulose membranes for immunodetection.
Membranes were blocked by incubation overnight at 4° C. in PBS containing 2.5% dried milk and 0.5% Tween-20 and then incubated with a Ras-specific monoclonal antibody, Y13-259 (Furth, M. E., et al., (1982), Monoclonal antibodies to the p21 products of the transforming gene of Harvey murine sarcome virus and of the cellular ras gene family, J. Virol. 43: 294-304), in PBS containing 1% fetal calf serum for one hour at room temperature. After washing, membranes were incubated for one hour at room temperature with a 1:5000 dilution of secondary antibody, rabbit anti-rat IgG conjugated to horseradish peroxidase, in PBS containing 1% fetal calf serum. The presence of processed and unprocessed Ras-CVLS or Ras-CVLL was detected using a calorimetric peroxidase reagent (4-chloro-1-naphthol) as described by the manufacturer (Bio-Rad).

[3] = system: Normal human HEPM fibroblasts; assay: Cell Mat assay: inhibition of normal cell growth; type: cell-based; settings: Homo sapiens, Fibroblast, mIC50, normal cell monolayer
Procedure: (§2) Normal human HEPM fibroblasts were planted in 3.5 cm dishes at a density of 5×10^4 cells/dish in 2 ml growth medium, and incubated for 3-5 d to achieve confluence. Medium was aspirated from each dish and the indicator tumor cells, T24-BAG4 human bladder carcinoma cells expressing an activated H-ras gene, were planted on top of the fibroblast monolayer at a density of 2×10^3cells/dish in 2 ml growth medium, and allowed to attach overnight. Compound-induced colony inhibition was assayed by addition of serial dilutions of compound directly to the growth medium 24 h after tumor cell planting, and incubating cells for an additional 14 d to allow colony formation. Assays were terminated by rinsing monolayers twice with phosphate-buffered saline (PBS), fixing the monolayers with a 1% glutaraldehyde solution in PBS, then visualizing tumor cells by staining with X-Gal (Price, J., et al., Lineage analysis in the vertebrate nervous system by retrovirus-mediated gene transfer, Proc. Natl. Acad. Sci.84, 156-160(1987)). […] Both IC50 values were obtained by determining the density of tumor cells and mat cells by visual inspection and enumeration of cells per colony and the number of colonies under the microscope. The therapeutic index of the compound was quantitatively expressed as the ratio of mIC50/tIC50, with values greater than one indicative of tumor target specificity.

[4] = system: T24-BAG4 human bladder carcinoma cells expressing an activated H-ras gene; assay: Cell Mat assay: inhibition of tumor cell growth; type: cell-based; settings: for IC50: tIC50
Procedure: as §2

[5] = biological target: T2, geranylgeranyl protein transferase (GGPT) I (Rattus norvegicus, UniProt P53610+Q04631); assay: In vitro enzyme assay: inhibition of geranylgeranyl protein transferase I; type: biochemical
T2 construct: were partially purified from rat brain by ammonium sulfate fractionation followed by Q-Sepharose; from tissue; host or cells: rat brain
From the text: as §1
Both farnesyl protein transferase (FPT) and geranylgeranyl protein transferase (GGPT) I were partially purified from rat brain by ammonium sulfate fractionation followed by Q-Sepharose (Pharmacia, Inc.) anion exchange chromatography essentially as described by Yokoyama et al (Yokoyama, K., et al., (1991). A protein geranylgeranyltransferase from bovine brain: Implications for protein prenylation specificity, Proc. Natl. Acad. Sci USA 88: 5302-5306, the disclosure of which is incorporated herein by reference thereto). Human farnesyl protein transferase was also expressed in E. coli, using cDNA clones encoding both the α and β subunits. The methods used were similar to those published (Omer, C. et al., (1993), Characterization of recombinant human farnesyl protein transferase: Cloning, expression, farnesyl diphosphate binding, and functional homology with yeast prenyl-protein transferase, Biochemistry 32:5167-5176). Human farnesyl protein transferase was partially-purified from the soluble protein fraction of E. coli as described above. the tricyclic farnesyl protein transferase inhibitors disclosed herein inhibited both human and rat enzyme with similar potencies. Two forms of val^12-Ha-Ras protein were prepared as substrates for these enzymes, differing in their carboxy terminal sequence. One form terminated in cysteine-valine-leucine-serine (Ras-CVLS) the other in cystein-valine-leucine-leucine (Ras-CVLL). Ras-CVLS is a substrate for the farnesyl protein transferase while Ras-CVLL is a substrate for geranylgeranyl protein transferase I. The cDNAs encoding these proteins were constructed so that the proteins contain an amino-terminal extension of 6 histidine residues. Both proteins were expressed in Escherichia coli and purified using metal chelate affinity chromatography. The radiolabelled isoprenyl pyrophosphate substrates, [^3H]farnesyl pyrophosphate and [^3H]geranylgeranyl pyrophosphate, were purchased from DuPont/New England Nuclear.
The geranylgeranyl protein transferase I assay was essentially identical to the farnesyl protein transferase assay described above, with two exceptions: [^3H]geranylgeranylpyrophosphate replaced farnesyl pyrophosphate as the isoprenoid donor and Ras-CVLL was the protein acceptor. This is similar to the assay reported by Casey et al (Casey, P. J., et al., (1991), Enzymatic modification of proteins with a geranylgeranyl isoprenoid, Proc. Natl. Acad. Sci, USA 88: 8631-8635, the disclosure of which is incorporated herein by reference thereto).

[6] = Ras-CVLS farnesylation, partially purified rat brain FPT, read-out: FPT IC50

IC50 ([4]; Homo sapiens) [µM]	IC50 [1, 6] [µM]	SMILES	IC50 [2] [µM]	IC50 [3] [µM]	further results
–	11.6	CCOC(=O)N1CCC(=C2c3ccc(Cl)cc3CCc3c(On4nnc5ccccc54)ccnc32)CC1 [Compound 654.00, Ethyl 4-[4-[(1H-benzotriazol-1-yl)oxy]-8-chloro-5,6-dihydro-11H-benzo[5,6]cyclohepta[1,2-b]pyridin-11-ylidene]-1-piperidine Carbamate]	–	–	melting point: 181.5 to 183.9 °C
18	7.2	CCOC(=O)N1CCN(C2c3ccc(Cl)cc3CCc3cccnc32)CC1 (stereo not shown) [Compound 550.00, Ethyl 4-(8-chloro-6,11-dihydro-11H-benzo[5,6]cyclohepta[1,2-b]pyridin-11-yl)-1-piperazinecarboxylate]	> 20	> 50	IC50 [4]: 25 µM
18	–	O=C(Sc1ccccc1)N1CCC(=C2c3ccc(Cl)cc3CCc3cccnc32)CC1 [Compound 595.00, 4-(8-chloro-5,6-dihydro-11H-benzo[5,6]cyclohepta[1,2-b]-pyridin-11ylidene)-1-piperinecarbothioic Acid, S-phenyl Ester]	5.1	> 50	melting point: 175 to 177 °C
–	0.31	CN1CCC(OC(=O)N2CCN(C3c4ccc(Cl)cc4CCc4cc(Br)cnc43)CC2)CC1 (stereo not shown) [Compound 803.00]	> 5	–	–

Second part, the compound before the results:

SMILES	IC50 ([4]; Homo sapiens) [µM]	IC50 [1, 6] [µM]	IC50 [2] [µM]	IC50 [3] [µM]	further results
O=C(Oc1cccnc1)N1CCC(C2c3ccc(Cl)cc3C=Cc3cccnc32)CC1 (stereo not shown)	–	–	–	–	melting point: 102.1 to 103.9 °C
O=C(Oc1cccnc1)N1CCN([C@H]2c3ccc(Cl)cc3CCc3cccnc32)CC1 [Compound 608.00, (−) 3-pyridyl 4-(8-chloro-6,11-dihydro-5H-benzo[5,6]-cyclohepta[1,2-b]pyridin-11(S)-yl)-1-piperazinecarboxylate]	37	–	3.9	> 50	IC50 [1]: 0.82 µM
CCOC(=O)N1CCC(C2c3ccc(Cl)cc3C=Cc3ccc[n+]([O-])c32)CC1 (stereo not shown)	–	–	–	–	melting point: 78.6 to 89.4 °C
O=C(Oc1cccnc1)N1CCN([C@@H]2c3ccc(Cl)cc3CCc3cccnc32)CC1 [Compound 600.00, (+) 3-pyridyl 4-(8-chloro-6,11-dihydro-5H-benzo[5,6]-cyclohepta[1,2-b]pyridin-11(R)-yl)-1-piperazine Carboxylate]	12.5	–	6.9	50	IC50 [1]: 1.28 µM
CCSC(=O)N1CCC(=C2c3ccc(Cl)cc3CCc3cccnc32)CC1 [Compound 500.00]	25	1.6	22	25	selective for FPT inhibition (versus GGPT) ([5]; FPT versus GGPT): at least 31 fold; inhibition at 50 µM ([5]; at 50 μM): 7%; selective antiproliferative activity against Ras-transformed cells versus normal cells [4]: no
CCOC(=O)N1CCC(C2c3ccc(Cl)cc3CCc3cccnc32)CC1 (stereo not shown) [Compound 618.00]	> 50	1.22	20.5	> 50	IC50 ([5]; Ras-CVLL as acceptor, read-out: GGPT IC 50): > 50 µM; selective antiproliferative activity against Ras-transformed cells versus normal cells [4]: little
O=C(Oc1ccccc1)N1CCC(=C2c3ccc(Cl)cc3CCc3cccnc32)CC1 [Compound 565.00]	–	0.84	6.7	–	–
O=C(Oc1cccnc1)N1CCN(C2c3ccc(Cl)cc3CCc3cccnc32)CC1 (stereo not shown) [Compound 610.00, 3-pyridyl 4-(8-chloro-6,11-dihydro-5H-benzo[5,6]-cyclohepta[1,2-b]pyridin-11-yl)-1-piperazinecarboxylate]	–	–	3	–	IC50 [1]: 0.5 µM
CC(C)COC(=O)N1CCC(=C2c3ccc(Cl)cc3CCc3cccnc32)CC1 [Compound 575.00]	37	4.4	9.9	> 50	–
O=C(Oc1ccccc1)N1CCN(C2c3ccc(Cl)cc3CCc3cccnc32)CC1 (stereo not shown) [Compound 612.00]	50	–	4.8	> 50	IC50 [1]: 0.8 µM; selective antiproliferative activity against Ras-transformed cells versus normal cells [4]: little
